Assay results taken from US11254686B1 (Corvus Pharmaceuticals, Inc., priority 2017, dated 2022).
Like-named read-outs stand apart in the source and are kept apart here.

Columns and labels:
[1] = biological target: adenosine A2A receptor (Homo sapiens (Human), UniProt P29274); assay: Adenosine receptor activity assay (Table 1), A2A activity; format: biochemical; settings: read-out: Ave A2A cAMP IC50
[2] = biological target: T1, adenosine A3 receptor (Homo sapiens (Human), UniProt P0DMS8); assay: Adenosine receptor activity assay (Table 1), A3 cAMP; format: biochemical
T1 sequence (P0DMS8 whole entry): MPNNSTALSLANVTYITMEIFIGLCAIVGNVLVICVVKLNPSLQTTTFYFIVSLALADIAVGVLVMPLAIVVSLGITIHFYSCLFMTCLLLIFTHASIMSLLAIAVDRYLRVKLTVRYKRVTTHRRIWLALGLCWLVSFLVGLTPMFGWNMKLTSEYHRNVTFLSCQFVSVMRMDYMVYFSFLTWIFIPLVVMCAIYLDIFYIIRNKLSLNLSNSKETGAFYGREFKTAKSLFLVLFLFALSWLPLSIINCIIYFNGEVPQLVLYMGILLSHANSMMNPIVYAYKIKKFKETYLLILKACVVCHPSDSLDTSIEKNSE

[3] = biological target: T2, adenosine A1 receptor (Homo sapiens (Human), UniProt P30542); assay: Adenosine receptor activity assay (Table 1), A1 cAMP; format: biochemical
T2 sequence (P30542 whole entry): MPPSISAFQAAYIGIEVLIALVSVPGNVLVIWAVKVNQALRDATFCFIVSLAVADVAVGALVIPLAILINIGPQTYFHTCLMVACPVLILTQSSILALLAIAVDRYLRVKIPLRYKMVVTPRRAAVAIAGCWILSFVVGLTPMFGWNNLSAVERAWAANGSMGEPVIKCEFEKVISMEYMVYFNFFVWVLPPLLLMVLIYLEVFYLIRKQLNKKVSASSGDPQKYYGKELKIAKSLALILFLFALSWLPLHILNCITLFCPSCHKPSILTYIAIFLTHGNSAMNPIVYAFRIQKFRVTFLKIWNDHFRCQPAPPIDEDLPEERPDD

[4] = biological target: adenosine A2B receptor (Homo sapiens (Human), UniProt P29275); assay: Adenosine receptor activity assay (Table 1), A2B activity; format: biochemical; settings: for IC50: read-out: Ave A2B cAMP IC50
adenosine A2B receptor, sequence (P29275 whole entry): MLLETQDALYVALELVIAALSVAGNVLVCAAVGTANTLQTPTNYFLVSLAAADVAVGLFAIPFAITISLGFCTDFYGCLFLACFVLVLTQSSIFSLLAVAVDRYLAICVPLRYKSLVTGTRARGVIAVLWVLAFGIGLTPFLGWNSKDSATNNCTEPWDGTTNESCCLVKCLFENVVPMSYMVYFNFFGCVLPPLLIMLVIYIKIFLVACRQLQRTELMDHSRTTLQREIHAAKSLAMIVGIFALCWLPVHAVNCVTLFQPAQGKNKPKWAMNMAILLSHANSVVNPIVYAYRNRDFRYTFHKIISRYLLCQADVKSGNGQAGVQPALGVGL

[5] = Hepatocyte (Hep) intrinsic clearance, human; format: in vitro ADME; settings: hepatocytes
[6] = biological target: T2, adenosine A1 receptor; assay: A1 cAMP IC50 assay (Table 1); format: biochemical
[7] = biological target: T1, adenosine A3 receptor; assay: A3 cAMP IC50 assay (Table 1); format: biochemical
[8] = Hepatocyte (Hep) intrinsic clearance, rat; format: in vitro ADME; settings: hepatocytes
[9] = A2A activity to the A2B activity, A2A/A2B
[10] = A2A activity to A2B activity (A2A/A2B)

adenosine A2A receptor, sequence (P29274 whole entry): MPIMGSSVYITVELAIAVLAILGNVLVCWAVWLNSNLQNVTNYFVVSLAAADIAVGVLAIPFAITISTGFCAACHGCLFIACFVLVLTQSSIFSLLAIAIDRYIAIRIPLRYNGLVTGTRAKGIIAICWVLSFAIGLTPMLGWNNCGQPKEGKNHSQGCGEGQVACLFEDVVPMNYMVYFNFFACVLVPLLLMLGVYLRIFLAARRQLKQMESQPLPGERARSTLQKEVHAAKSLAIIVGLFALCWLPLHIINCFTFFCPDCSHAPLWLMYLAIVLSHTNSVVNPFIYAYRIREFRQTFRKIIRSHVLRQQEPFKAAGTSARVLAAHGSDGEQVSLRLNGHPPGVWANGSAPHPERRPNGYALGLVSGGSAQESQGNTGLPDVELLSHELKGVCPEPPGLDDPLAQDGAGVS

Row | Compound | IC50 ([1]; cAMP) [nM] | IC50 [2] [nM] | IC50 [3] [nM] | Ratio [4, 9] | IC50 ([4]; cAMP) [nM] | IC50 [1] [nM] | hepatocyte CLint [5] [µL/min/1e6 cells] | IC50 [6] [nM] | IC50 [7] [nM] | hepatocyte CLint [8] [µL/min/1e6 cells] | Ratio [4, 10] | IC50 [4] [nM]
1 | C[C@H](Nc1nc(C(=O)N2CC(NC(=O)c3ccc(F)c(F)c3)C2)c2sccc2n1)c1cncc(F)c1 [Example Z616, (S)-3,4-Difluoro-N-(1-(2-((1-(5-fluoropyridin-3-yl)ethyl)amino)thieno[3,2-d]pyrimidine-4-carbonyl)azetidin-3-yl)benzamide] | 10 to 50 | > 500 | > 500 | 4.32 | < 10 | – | – | – | – | – | – | –
2 | Cc1cc2nc(N[C@@H](C)c3cncc(F)c3)nc(C(=O)N3CC(NC(=O)c4ccc(C(F)(F)F)o4)C3)c2s1 [Example Z632, (S)—N-(1-(2-((1-(5-Fluoropyridin-3-yl)ethyl)amino)-6-methylthieno[3,2-d]pyrimidine-4-carbonyl)azetidin-3-yl)-5-(trifluoromethyl)furan-2-carboxamide] | < 10 | 100 to 500 | > 500 | 1.12 | < 10 | – | – | – | – | – | – | –
3 | C[C@H](Nc1nc(C(=O)N2CC(NC(=O)C3CC(C)(C)C3)C2)c2sccc2n1)c1cncc(F)c1 [Example Z638, (S)—N-(1-(2-((1-(5-Fluoropyridin-3-yl)ethyl)amino)thieno[3,2-d]pyrimidine-4-carbonyl)azetidin-3-yl)-3,3-dimethylcyclobutane-1-carboxamide] | < 10 | 50 to 100 | > 500 | 0.52 | 10 to 50 | – | – | – | – | – | – | –
4 | C[C@H](Nc1nc(C(=O)N2CC(NC(=O)C3(C)CCOC3)C2)c2sccc2n1)c1cncc(F)c1 (stereo partly drawn) [Example Z608, N-(1-(2-(((S)-1-(5-Fluoropyridin-3-yl)ethyl)amino)thieno[3,2-d]pyrimidine-4-carbonyl)azetidin-3-yl)-3-methyltetrahydrofuran-3-carboxamide] | < 10 | > 500 | > 500 | 0.42 | 10 to 50 | – | – | – | – | – | – | –
5 | C[C@H](Nc1nc(C(=O)N2CC(NC(=O)C3(C)CC3)C2)c2sccc2n1)c1cncc(F)c1 [Example Z603, (S)—N-(1-(2-((1-(5-Fluoropyridin-3-yl)ethyl)amino)thieno[3,2-d]pyrimidine-4-carbonyl)azetidin-3-yl)-1-methylcyclopropane-1-carboxamide] | < 10 | 100 to 500 | > 500 | 1.00 | < 10 | – | – | – | – | – | – | –
6 | C[C@H](Nc1nc(C(=O)N2CC(NC(=O)c3ccncc3)C2)c2sccc2n1)c1cncc(F)c1 [Example Z619, (S)—N-(1-(2-((1-(5-Fluoropyridin-3-yl)ethyl)amino)thieno[3,2-d]pyrimidine-4-carbonyl)azetidin-3-yl)isonicotinamide] | 50 to 100 | > 500 | > 500 | 6.42 | 10 to 50 | – | – | – | – | – | – | –
7 | N-(tert-Butoxy)-1-(2-(((S)-1-(5-fluoropyridin-3-yl)ethyl)amino)-6-methylthieno[3,2-d]pyrimidine-4-carbonyl)pyrrolidine-3-carboxamide [Example Z602] | < 10 | 100 to 500 | > 500 | 0.49 | 10 to 50 | – | – | – | – | – | – | –
8 | C[C@H](Nc1nc(C(=O)N2CC(NC(=O)C(C)(C)C(F)(F)F)C2)c2sccc2n1)c1cncc(F)c1 [Example Z606, (S)-3,3,3-Trifluoro-N-(1-(2-((1-(5-fluoropyridin-3-yl)ethyl)amino)thieno[3,2-d]pyrimidine-4-carbonyl)azetidin-3-yl)-2,2-dimethylpropanamide] | < 10 | 100 to 500 | > 500 | 0.47 | < 10 | – | – | – | – | – | – | –
9 | C[C@H](Nc1nc(C(=O)N2CC(NC(=O)C3(C(F)(F)F)CC3)C2)c2sccc2n1)c1cncc(F)c1 [Example Z609, (S)—N-(1-(2-((1-(5-Fluoropyridin-3-yl)ethyl)amino)thieno[3,2-d]pyrimidine-4-carbonyl)azetidin-3-yl)-1-(trifluoromethyl)cyclopropane-1-carboxamide] | < 10 | 100 to 500 | > 500 | 0.98 | < 10 | – | – | – | – | – | – | –
10 | (S)—N-(1-(2-((1-(5-Fluoropyridin-3-yl)ethyl)amino)-7-methylthieno[3,2-d]pyrimidine-4-carbonyl)azetidin-3-yl)pivalamide [Example Z624] | < 10 | 100 to 500 | > 500 | 0.18 | 10 to 50 | – | – | – | – | – | – | –
11 | Cc1csc2c(C(=O)N3CC(NC(=O)c4cccc(Cl)c4)C3)nc(N[C@@H](C)c3cncc(F)c3)nc12 [Example Z625, (S)-3-Chloro-N-(1-(2-((1-(5-fluoropyridin-3-yl)ethyl)amino)-7-methylthieno[3,2-d]pyrimidine-4-carbonyl)azetidin-3-yl)benzamide] | 10 to 50 | > 500 | > 500 | 0.68 | 10 to 50 | – | – | – | – | – | – | –
12 | C[C@H](Nc1nc(C(=O)N2CC(NC(=O)C3(C)CCC3)C2)c2sccc2n1)c1cncc(Cl)c1 [Example Z644, (S)—N-(1-(2-((1-(5-Chloropyridin-3-yl)ethyl)amino)thieno[3,2-d]pyrimidine-4-carbonyl)azetidin-3-yl)-1-methylcyclobutane-1-carboxamide] | < 10 | 100 to 500 | > 500 | 0.59 | 10 to 50 | – | – | – | – | – | – | –
13 | C[C@H](Nc1nc(C(=O)N2CC(NC(=O)C3CCOCC3)C2)c2sccc2n1)c1cncc(F)c1 [Example Z622, (S)—N-(1-(2-((1-(5-Fluoropyridin-3-yl)ethyl)amino)thieno[3,2-d]pyrimidine-4-carbonyl)azetidin-3-yl)tetrahydro-2H-pyran-4-carboxamide] | 10 to 50 | > 500 | > 500 | 1.02 | 10 to 50 | – | – | – | – | – | – | –
14 | Cc1cc2nc(N[C@@H](C)c3cncc(F)c3)nc(C(=O)N3CC(NC(=O)[C@H]4CCOC4)C3)c2s1 [Example Z599, (S)—N-(1-(2-(((S)-1-(5-Fluoropyridin-3-yl)ethyl)amino)-6-methylthieno[3,2-d]pyrimidine-4-carbonyl)azetidin-3-yl)tetrahydrofuran-3-carboxamide] | 10 to 50 | 100 to 500 | > 500 | 1.22 | 10 to 50 | – | – | – | – | – | – | –
15 | C[C@H](Nc1nc(C(=O)N2CC(NC(=O)c3cccc(Cl)c3)C2)c2sccc2n1)c1cncc(F)c1 [Example Z615, (S)-3-Chloro-N-(1-(2-((1-(5-fluoropyridin-3-yl)ethyl)amino)thieno[3,2-d]pyrimidine-4-carbonyl)azetidin-3-yl)benzamide] | < 10 | 100 to 500 | > 500 | 2.10 | < 10 | – | – | – | – | – | – | –
16 | C[C@H](Nc1nc(C(=O)N2CC(NC(=O)[C@H]3CC[C@H](C)CC3)C2)c2sccc2n1)c1cncc(F)c1 [Example Z639, Trans-N-(1-(2-(((S)-1-(5-fluoropyridin-3-yl)ethyl)amino)thieno[3,2-d]pyrimidine-4-carbonyl)azetidin-3-yl)-4-methylcyclohexane-1-carboxamide] | 10 to 50 | 100 to 500 | > 500 | 0.98 | 10 to 50 | – | – | – | – | – | – | –
17 | C[C@H](Nc1nc(C(=O)N2CC(NC(=O)c3ccc(Cl)cc3)C2)c2sccc2n1)c1cncc(F)c1 [Example Z617, (S)-4-Chloro-N-(1-(2-((1-(5-fluoropyridin-3-yl)ethyl)amino)thieno[3,2-d]pyrimidine-4-carbonyl)azetidin-3-yl)benzamide] | 10 to 50 | > 500 | > 500 | 3.67 | < 10 | – | – | – | – | – | – | –
18 | Cc1cc(C)cc(C(=O)NC2CN(C(=O)c3nc(N[C@@H](C)c4cncc(F)c4)nc4ccsc34)C2)c1 [Example Z646, (S)—N-(1-(2-((1-(5-Fluoropyridin-3-yl)ethyl)amino)thieno[3,2-d]pyrimidine-4-carbonyl)azetidin-3-yl)-3,5-dimethylbenzamide] | 10 to 50 | 100 to 500 | > 500 | 0.65 | 10 to 50 | – | – | – | – | – | – | –
19 | C[C@H](Nc1nc(C(=O)N2CC[C@H](O)C2)c2sccc2n1)c1cncc(F)c1 [Example Z165, (2-(((S)-1-(5-Fluoropyridin-3-yl)ethyl)amino)thieno[3,2-d]pyrimidin-4-yl)((S)-3-hydroxypyrrolidin-1-yl)methanone] | – | – | – | – | – | > 500 | 5.66 | > 500 | > 500 | 14.8 | 73.68 | < 10
20 | COC1CN(C(=O)c2nc(N[C@@H](C)c3cccnc3)nc3ccsc23)C1 [Example Z139, (S)-(3-Methoxyazetidin-1-yl)(2-((1-(pyridin-3-yl)ethyl)amino)thieno[3,2-d]pyrimidin-4-yl)methanone] | – | – | – | – | – | 50 to 100 | 7.67 | > 500 | > 500 | 24.2 | 8.08 | < 10
21 | CNc1cc2nc(N[C@@H](C)c3cccnc3)nc(C(=O)N3CCCC3)c2s1 [Example Z152, (S)-(6-(Methylamino)-2-((1-(pyridin-3-yl)ethyl)amino)thieno[3,2-d]pyrimidin-4-yl)(pyrrolidin-1-yl)methanone] | – | – | – | – | – | 100 to 500 | 12.3 | > 500 | 50 to 100 | 38.3 | 53.70 | < 10
